Test results published in patent US11857669B2, “Treatment of a disease of the gastrointestinal tract with a JAK inhibitor and devices” (BIORA THERAPEUTICS, INC., priority 2016, dated 2024).

Test: Tacrolimus tissue pharmacokinetics, oral vs intra-cecal ingestible device delivery
Type: in vivo, Yorkshire-Cross farm swine
Settings: swine; intra-cecally vs orally administered; 12 hours post-dose; FIG. 76
Method: The primary objective of this study was to compare the tissue, plasma, rectal sample, and GI content pharmacokinetics of tacrolimus through oral versus intra-cecal ingestible device delivery in normal Yorkshire-Cross farm swine.
No further randomization procedure was employed.
Animals in Group 1 received an ingestible device containing 0.8 mL of vehicle solution (80% alcohol, 20% HCO-60). Animals in Group 2 received orally […] liquid formulation of tacrolimus at 4 mg/0.8 mL per animal (Prograf: 5 mg/mL). Animals in Group 3 received intra-cecally an ingestible device containing tacrolimus at 1 mg in 0.8 mL per ingestible device. Animals in Group 4 received intra-cecally an ingestible device containing tacrolimus at 2 mg in 0.8 mL per ingestible device. Animals in Group 5 received intra-cecally an ingestible device containing tacrolimus at 4 mg in 0.8 mL per ingestible device. […]
For tissue necropsy, small intestine fluid and cecal fluid were collected separately from all the animals into two separate square plastic bottles, and stored at −20° C. The length and diameter of the cecum and the colon was measured from one animal in each group and recorded for reference. […] All samples were weighed, and the tissue sample weights were recorded. […] Around 3 grams of the total punched sample were collected into a pre-weighed 15-mL conical tube, and the tissue weight was recorded. […]

SMILES: C=CC[C@@H]1/C=C(\C)C[C@H](C)C[C@H](OC)[C@H]2O[C@@](O)(C(=O)C(=O)N3CCCC[C@H]3C(=O)O[C@H](/C(C)=C/[C@@H]3CC[C@@H](O)[C@H](OC)C3)[C@H](C)[C@@H](O)CC1=O)[C@H](C)C[C@@H]2OC [tacrolimus]
- mean concentration of tacrolimus in the cecum tissue and the proximate colon tissue: higher
